Results from patent publication US5047412A, “Alkene derivatives” (Imperial Chemical Industries PLC, priority 1985, dated 1991).

Columns and labels:
[1] = test system: rabbit aortal strip (TXA2 antagonism); assay: rabbit aortal strip model (test (a)); format: cell-based; settings: procedure (a), agonist U46619
Description: (a) the rabbit aortal strip model devised by Piper and Vane (Nature, 1969, 223, 29-35) using as agonist a freshly prepared sample of TXA2, generated by addition of arachidonic acid (25 μg) to citrated, platelet rich rabbit plasma (250 μl) and allowing the mixture to aggregate fully over 90 seconds before use; alternatively the TXA2 mimetic agent known as U46619 (described by R. L. Jones et alia, in "Chemistry, Biochemistry and Pharmacological Activity of Prostanoids" edited by S. M. Roberts and F. Scheinmann, at page 211, Pergamon Press, 1979) may be used as the agonist;

[2] = target: T1, blood platelet aggregation (TXA2 antagonism) (Homo sapiens, UniProt P21731); assay: blood platelet aggregation test (test (b)); format: cell-based; settings: procedure (b), human citrated platelet-rich plasma, U46619
T1 construct: aggregating human, citrated platelet-rich plasma; endogenous in cells; host or cells: human platelets in citrated platelet-rich plasma
T1 sequence (P21731 1-343): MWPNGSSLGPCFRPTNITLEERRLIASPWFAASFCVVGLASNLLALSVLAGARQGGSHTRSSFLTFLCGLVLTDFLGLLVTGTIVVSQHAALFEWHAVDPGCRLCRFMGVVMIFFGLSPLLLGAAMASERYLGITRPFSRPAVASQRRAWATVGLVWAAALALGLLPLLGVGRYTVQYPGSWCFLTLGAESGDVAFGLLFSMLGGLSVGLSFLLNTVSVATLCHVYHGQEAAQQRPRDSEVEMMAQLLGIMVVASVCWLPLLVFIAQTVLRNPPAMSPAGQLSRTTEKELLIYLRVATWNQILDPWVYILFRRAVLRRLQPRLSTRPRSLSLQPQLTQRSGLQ
Excerpt: (b) a blood platelet aggregation test based on that described by Born (Nature, 1962, 194, 927-929) and involving:
(i) aggregating human, citrated platelet-rich plasma by addition of the TXA2 mimetic agent U46619 so that a dose-response curve is generated;
(ii) generating a dose-response curve for U46619 stimulated platelet aggregation in the presence of increasing amounts of test compound (generally in the range, 10^-5 M to 10^-10 M); and
(iii) calculating a Kb value indicating potency of TXA2 antagonism for the test compound, averaged over several concentrations, from the calculated 50% response value for U46619 aggregation in the presence and absence of test compound; and […]

- Kb [2]: 12 nM
SMILES: O=C(O)CC/C=C\C[C@@H]1CO[C@H](/C=C/c2ccccc2)O[C@@H]1c1ccccc1O (relative stereo) [Example 1, 4(Z)-6-([2,4,5-cis]-4-o-hydroxyphenyl-2(E)-styryl-1,3-dioxan-5-yl)hexenoicacid]
- pA2 [1]: 8.9
